# Laboratory results taken from patent US8409618B2, “Odor-reducing quinone compounds” (Kimberly-Clark Worldwide, Inc., priority 2002, dated 2013).
# Experiments:
# Set-up in all cases: species or system human
# [1] = Urine odor and secondary odor panel ranking, dye powders in urine, 8 millimolar (Example 7); settings: for Secondary Odor Ranking: scale 1 to 5, 5 extremely unpleasant, individual panelists' scores; for Average Urine Odor Ranking (with statistical corrections), Avg. Score: ignoring statistical anomalies
# Method: (§1) Qualitative odor reduction was also assessed against common odors, such as garlic and urine. Specifically, panelists assessed odorant-containing jars by carefully unscrewing, and then raising the lid of each jar in a controlled manner, such that the odor was not diluted by the ambient air. The jars were wrapped and coded to ensure that the sample identity was unknown.
# The effectiveness of various dyes in reducing urine odor was compared. […] Human female urine was initially collected and pooled by a nurse on staff at Kimberly-Clark Corporation. The pooled urine was added to mason jars in 50-milliliter aliquots using an automated pipette aid. Powders of the aforementioned dyes (commercially available from Sigma-Aldrich Chemical Co., Inc. of St. Louis, Mo. and Noveon Hilton Davis, Inc. of Cincinnati, Ohio) were weighed and placed into the mason jars containing 50 milliliters of urine so that the final concentration of the dye powder was 8 millimolar (equivalent to 0.5 wt. %). The mason jars were placed in an incubator overnight at 37° C.
# To aid in the assessment of the dyes, the mason jars were divided into two groups for a morning assessment, and the best of both groups were compared in an afternoon assessment (after a total of 24 hours). In addition to ranking the jars from least to most malodorous (on a scale from 1 to 7, with 7 being the most malodors), panelists were also asked to judge whether there were secondary (non-urine) odors present and, if so, the extent that the secondary odors were unpleasant (on a scale from 1 to 5, with 5 being extremely unpleasant).
# In this assessment, panelists were given instructions to rank the least malodorous jar as “1” and the most malodorous jar as “10,” remaining free to rank the other jars between 2-9.
# [2] = Urine odor panel ranking, dye powders in urine, 8 millimolar (Example 5); settings: 8 millimolar dye in urine
# Method: as §1, with “unknown. The effectiveness of various quinone dyes in reducing urine odor was compared. Human female urine was initially collected and pooled by a nurse on staff at Kimberly-Clark Corporation.” for “unknown.”
# [3] = Urine odor panel ranking, dye-coated Poise pads without SN-AK (Example 8); settings: for Secondary Odor Ranking: scale of 1-5; for Average Urine Odor Ranking, Avg. Score / overall urine odor control performance (panel): final pooled assessment; for urine odor reduction (panel), assessment within set: overnight 37° C.; for overall urine odor control performance (panel): top-sheet coating
# Method: as §1
# Specifically, Acid Green 25, Acid Green 41, Acid Blue 129, and D&C Green No. 5 were tested. Powders of the aforementioned dyes (commercially available from Sigma-Aldrich Chemical Co., Inc. of St. Louis, Mo. and Noveon Hilton Davis, Inc. of Cincinnati, Ohio) were dissolved in water so that the concentration of the dye was 8 millimolar (equivalent to 0.5 wt. %). Samples of tissue wrap were created by cutting 9″×6″ sheets from a roll of tissue (1 ply white cellulose wrap sheet having a basis weight of 16.6 grams per square meter) were weighed, oven-dried overnight at 90° C., and weighed again the next day to calculate the amount of residual water in each wrap. The wraps were then dipped into a respective dye solution and hung to dry overnight, after which they were weighed again. The treated wraps were then rinsed in deionized water to remove any unbound dye and hung again to dry overnight. After weighing the treated wraps, they were once again oven-dried overnight at 90° C. and weighed to determine the dry add-on percentages ([…]). The add-on percentage for each sample was approximately 1.6 wt. %.
# Two different sets of Poise® pads (commercially available from Kimberly-Clark Corp.) were tested. The first set of dye-coated tissue wraps (without SN-AK) was inserted around the pledgette area of the Poise® pads. The Poise® pads were cut open and the tissue wrap surrounding the pledgette carefully removed and replaced with dye-coated tissue wrap. The second set of dye-coated tissue wraps (without SN-AK) used dye coatings on the top of the pad (rather than inside). These pads were constructed by spreading the solution over the top of each pad. To prevent the superabsorbent area of the pad from soaking up the solution, the pads were cut open prior to coating and a layer of plastic wrap was placed between the top layer of the pad and the superabsorbent core. A pad that was cut open, but coated only with water on top, was used as a control. All pads were dried at room temperature overnight before placing them in mason jars for testing. For control purposes, a Poise® pad was also tested that was cut open, but retained its original tissue wrap. In addition, Serenity® Night & Day™ incontinence pads, which are commercially available from SCA Incontinence Care of Eddystone, Pa. and said to employ OdaSorb Plus™ to reduce odor, were also used for comparison.
# Fresh human female urine was then pooled, and 50-milliliter aliquots were applied to the pads using a pipette. The mason jars were placed in a 37° C. incubator overnight for assessment the next day. […] Panelists were again asked to rank any secondary odors for unpleasantness on a scale of 1-5.
# [4] = Second Grouping, morning assessment, 8 millimolar, higher = more malodorous
# [5] = First Grouping, morning assessment, 8 millimolar, 7 most malodorous
# [6] = First Grouping, scale 1 to 7, 7 most malodorous
# [7] = After 24 Hours, top performers of both groupings, 1 least, 10 most malodorous
# [8] = after 24 hours, top performers, 1 least, 10 most malodorous
# [9] = After 6 Hours, 10 most, 1 least malodorous
# [10] = After 24 Hours, 10 most, 1 least malodorous
# [11] = after 24 hours, top performers of both groupings
# [12] = 1st set (tissue-wrap coating), After 30 Hours
# [13] = 2nd set (top-sheet coating), After 30 Hours
# [14] = first set of pads (dye-coated tissue wrap around pledgette)
# [15] = second set of pads (dye coating on top of pad)
compound,measurement,setting,value
"O=C1C=C(S(=O)(=O)[O-])C(=O)c2ccccc21.[K+] [1,4 Naphthaquinone, 1,4 naphthaquinone-2-sulfonic acid potassium salt]","Average Urine Odor Ranking, Avg. Score",[1]; Second Grouping,1.8
same,secondary (non-urine) odor (panel),[1]; Second Grouping,unpleasant secondary odor
same,Urine Odor Ranking (number of panelists): ranking 1,[1]; [4],2 number of panelists
same,Urine Odor Ranking (number of panelists): ranking 2,[1]; [4],2 number of panelists
same,Urine Odor Ranking (number of panelists): ranking 3,[1]; [4],1 number of panelists
Nc1cc(S(=O)(=O)[O-])c(O)c2c1C(=O)c1c(O)c(S(=O)(=O)[O-])cc(N)c1C2=O.[Na+].[Na+] [Acid Blue 45],"Average Urine Odor Ranking, Avg. Score",[1]; Second Grouping,3.4
same,Urine Odor Ranking (number of panelists): ranking 2,[1]; [4],1 number of panelists
same,Urine Odor Ranking (number of panelists): ranking 3,[1]; [4],2 number of panelists
same,Urine Odor Ranking (number of panelists): ranking 4,[1]; [4],1 number of panelists
same,Urine Odor Ranking (number of panelists): ranking 5,[1]; [4],1 number of panelists
"1,2 naphthaquinone-2-sulfonic acid potassium salt",Urine Odor Ranking (number of panelists): ranking 2,[1]; [5],1 number of panelists
same,Urine Odor Ranking (number of panelists): ranking 3,[1]; [5],2 number of panelists
same,Urine Odor Ranking (number of panelists): ranking 4,[1]; [5],1 number of panelists
same,Urine Odor Ranking (number of panelists): ranking 7,[1]; [5],1 number of panelists
same,"Average Urine Odor Ranking, Avg. Score",[1]; [6],3.8
same,secondary (non-urine) odor (panel),[1]; first grouping,an unpleasant secondary smell was found to be present
same,urine odor reduction (panel),[1]; first grouping,effectively reduced urine odor
CCCCc1ccc(Nc2ccc(Nc3ccc(CCCC)cc3S(=O)(=O)[O-])c3c2C(=O)c2ccccc2C3=O)c(S(=O)(=O)[O-])c1.[Na+].[Na+] [Acid Green 27],Urine Odor Ranking (number of panelists): ranking 2,[1]; [7],1 number of panelists
same,Urine Odor Ranking (number of panelists): ranking 8,[1]; [7],2 number of panelists
same,Urine Odor Ranking (number of panelists): ranking 9,[1]; [7],1 number of panelists
same,Urine Odor Ranking (number of panelists): ranking 10,[1]; [7],1 number of panelists
same,Secondary Odor Ranking,[1]; After 24 Hours,4
same,"Average Urine Odor Ranking, Avg. Score",[1]; Second Grouping,3.6
same,Urine Odor Ranking (number of panelists): ranking 2,[1]; [4],2 number of panelists
same,Urine Odor Ranking (number of panelists): ranking 4,[1]; [4],1 number of panelists
same,Urine Odor Ranking (number of panelists): ranking 5,[1]; [4],2 number of panelists
same,Secondary Odor Ranking,[1]; Second Grouping,2
same,"Average Urine Odor Ranking, Avg. Score",[1]; [8],6.4
same,"Average Urine Odor Ranking (with statistical corrections), Avg. Score","[1]; after 24 hours, top performers",8.8
same,urine malodor reduction (panel),[2]; 6 and 24 hours,functioned effectively in reducing urine malodor
same,Avg. Ranking (odor),[2]; [9],4.4
same,Ranking (number of panelists): ranking 4,[2]; [9],3 number of panelists
same,Ranking (number of panelists): ranking 5,[2]; [9],2 number of panelists
same,Avg. Ranking (odor),[2]; [10],4.5
same,Ranking (number of panelists): ranking 1,[2]; [10],1 number of panelists
same,Ranking (number of panelists): ranking 3,[2]; [10],2 number of panelists
same,Ranking (number of panelists): ranking 7,[2]; [10],3 number of panelists
Cc1ccc(Nc2ccc(Nc3ccc(C)cc3S(=O)(=O)[O-])c3c2C(=O)c2ccccc2C3=O)c(S(=O)(=O)[O-])c1.[Na+].[Na+] [Acid Green 25],Urine Odor Ranking (number of panelists): ranking 1,[1]; [7],3 number of panelists
same,Urine Odor Ranking (number of panelists): ranking 2,[1]; [7],1 number of panelists
same,Urine Odor Ranking (number of panelists): ranking 10,[1]; [7],1 number of panelists
same,Urine Odor Ranking (number of panelists): ranking 1,[1]; [5],3 number of panelists
same,Urine Odor Ranking (number of panelists): ranking 2,[1]; [5],1 number of panelists
same,Urine Odor Ranking (number of panelists): ranking 6,[1]; [5],1 number of panelists
same,"Average Urine Odor Ranking, Avg. Score",[1]; [6],2.2
same,"Average Urine Odor Ranking, Avg. Score",[1]; Second Grouping,4.4
same,urine odor reduction (panel),[1]; [11],achieved the best odor reduction
same,"Average Urine Odor Ranking, Avg. Score",[1]; [8],3.0
same,"Average Urine Odor Ranking (with statistical corrections), Avg. Score","[1]; after 24 hours, top performers",1.3
same,secondary (non-urine) odor (panel),[1]; first grouping,not found to be unpleasant by most panelists
same,urine odor reduction (panel),[1]; first grouping,functioned effectively to reduce odor
same,Urine Odor Ranking (number of panelists): ranking 3,[3]; [12],1 number of panelists
same,Urine Odor Ranking (number of panelists): ranking 4,[3]; [12],1 number of panelists
same,Urine Odor Ranking (number of panelists): ranking 5,[3]; [12],1 number of panelists
same,Urine Odor Ranking (number of panelists): ranking 6,[3]; [12],1 number of panelists
same,Secondary Odor Ranking,[3]; [12],4
same,"Average Urine Odor Ranking, Avg. Score",[3]; 1st set (tissue-wrap coating),4.50
same,Urine Odor Ranking (number of panelists): ranking 1,[3]; [13],3 number of panelists
same,Urine Odor Ranking (number of panelists): ranking 7,[3]; [13],1 number of panelists
same,"Average Urine Odor Ranking, Avg. Score",[3]; 2nd set (top-sheet coating),2.50
same,"urine odor reduction (panel), assessment within set",[3]; [14],performed best for the first set of pads
same,"urine odor reduction (panel), assessment within set",[3]; [15],performed best for the second set of pads
same,overall urine odor control performance (panel),[3],best performer overall
Cc1ccc(Nc2ccc(Nc3ccc(C)cc3S(=O)(=O)[O-])c3c2C(=O)c2c(O)ccc(O)c2C3=O)c(S(=O)(=O)[O-])c1.[Na+].[Na+] [Acid Green 41],Urine Odor Ranking (number of panelists): ranking 1,[1]; [7],1 number of panelists
same,Urine Odor Ranking (number of panelists): ranking 2,[1]; [7],2 number of panelists
same,Urine Odor Ranking (number of panelists): ranking 3,[1]; [7],1 number of panelists
same,Urine Odor Ranking (number of panelists): ranking 7,[1]; [7],1 number of panelists
same,Urine Odor Ranking (number of panelists): ranking 1,[1]; [5],1 number of panelists
same,Urine Odor Ranking (number of panelists): ranking 2,[1]; [5],2 number of panelists
same,Urine Odor Ranking (number of panelists): ranking 3,[1]; [5],1 number of panelists
same,Urine Odor Ranking (number of panelists): ranking 4,[1]; [5],1 number of panelists
same,Secondary Odor Ranking,[1]; First Grouping,1
same,"Average Urine Odor Ranking, Avg. Score",[1]; [6],2.4
same,urine odor reduction (panel),[1]; [11],achieved the best odor reduction
same,"Average Urine Odor Ranking, Avg. Score",[1]; [8],3.0
same,"Average Urine Odor Ranking (with statistical corrections), Avg. Score","[1]; after 24 hours, top performers",2.0
same,urine odor reduction (panel),[1]; first grouping,functioned effectively to reduce odor
same,"Average Urine Odor Ranking, Avg. Score",[3]; 1st set (tissue-wrap coating),4.50
same,Urine Odor Ranking (number of panelists): ranking 2,[3]; [13],2 number of panelists
same,Urine Odor Ranking (number of panelists): ranking 3,[3]; [13],1 number of panelists
same,Urine Odor Ranking (number of panelists): ranking 4,[3]; [13],1 number of panelists
same,Secondary Odor Ranking,[3]; [13],1
same,"Average Urine Odor Ranking, Avg. Score",[3]; 2nd set (top-sheet coating),2.75
same,"urine odor reduction (panel), assessment within set",[3]; [14],performed best for the first set of pads
same,"urine odor reduction (panel), assessment within set",[3]; [15],performed best for the second set of pads
same,overall urine odor control performance (panel),[3],"best performer overall, followed by Acid Green 41"
"CCN(Cc1cccc(S(=O)(=O)[O-])c1)c1ccc(C(=C2C=CC(=[N+](CC)Cc3cccc(S(=O)(=O)[O-])c3)C=C2)c2ccccc2S(=O)(=O)[O-])cc1.[Na+].[Na+] [FD&C Blue No. 1, reference compound]",Urine Odor Ranking (number of panelists): ranking 4,[1]; [5],1 number of panelists
same,Urine Odor Ranking (number of panelists): ranking 5,[1]; [5],4 number of panelists
same,Secondary Odor Ranking,[1]; First Grouping,3
same,"Average Urine Odor Ranking, Avg. Score",[1]; [6],4.8
